Results on ten compounds are retold here after ChEMBL document CHEMBL1153966, “Synthesis, cytotoxicity, and haemolytic activity of chacotrioside lupane-type neosaponins and their germanicane-type rearrangement products” (Bioorg Med Chem Lett, 2009).

pIC50: −log10 of the molar value.

Data set [1] deals with A549. Description: Cytotoxicity against human A549 cells by resazurin reduction test. The class given is functional, cell-based.
Data set [2] can be described thus: Toxicity in sheep erythrocytes assessed as induction of hemolysis. The format is cell-based, Ovis aries, Erythrocyte. To be noted: read-out: HD50 (the source's name).
Data set [3] can be described thus: Cytotoxicity against human WS1 cells by resazurin reduction test. The format is cell-based. (In general: The colour change of resazurin is a common sign of viable cells or microbes.)
Data set [4] deals with MCF7. Description: Cytotoxicity against human MCF7 cells by resazurin reduction test. The class given is functional, cell-based.
Data set [5] deals with DLD-1. Kind of data set: Cytotoxicity against human DLD1 cells by resazurin reduction test. The format is functional, cell-based.
In data set [6] the test system is PC-3. Description: Cytotoxicity against human PC3 cells by resazurin reduction test. The format is functional, cell-based.

As to `C[C@@H]1O[C@@H](O[C@H]2[C@H](O[C@H]3CC[C@]4(C)[C@H]5CC[C@@H]6[C@H]7[C@H]8OC[C@@]7(CCC8(C)C)CC[C@@]6(C)[C@]5(C)CC[C@H]4C3(C)C)O[C@H](CO)[C@@H](O[C@@H]3O[C@@H](C)[C@H](O)[C@@H](O)[C@H]3O)[C@@H]2O)[C@H](O)[C@H](O)[C@H]1O`, the pIC50 (usually the negative decadic logarithm of the IC50, by convention in mol/L) in data set [1] was 4.85; in data set [3] it was 5.05; in data set [4], 4.82; in data set [5], 4.89; in data set [6], 4.89. The HC50 in data set [2] was determined as 90 µM.
For the compound `C[C@@H]1O[C@@H](O[C@H]2[C@H](O[C@H]3CC[C@]4(C)[C@H]5CC[C@@H]6[C@H]7[C@H]8OC(=O)[C@@]7(CCC8(C)C)CC[C@@]6(C)[C@]5(C)CC[C@H]4C3(C)C)O[C@H](CO)[C@@H](O[C@@H]3O[C@@H](C)[C@H](O)[C@@H](O)[C@H]3O)[C@@H]2O)[C@H](O)[C@H](O)[C@H]1O`, the negative-log IC50 (pIC50) in data set [1] is 4.89; in data set [3], 5.42; in data set [4], 4.74; in data set [5], 4.85; in data set [6], 5.00. Also, the HC50 in data set [2] worked out at 8 µM.
Turning to `C=C(C)[C@@H]1CC[C@]2(C)CC[C@]3(C)[C@H](CC[C@@H]4[C@@]5(C)CC[C@H](O)C(C)(C)[C@@H]5CC[C@]43C)[C@@H]12` [LUPEOL], the pIC50 in data set [1], in data set [3], in data set [4], in data set [5] and in data set [6] was < 4.30 throughout. Besides, in data set [2], the HC50 is > 100 µM.
For `CC1(C)CC[C@]23CC[C@]4(C)[C@H](CC[C@@H]5[C@@]6(C)CC[C@H](O)C(C)(C)[C@@H]6CC[C@]54C)[C@H]2[C@H]1OC3` [ALLOBETULIN], the pIC50 in data set [1], in data set [3], in data set [4], in data set [5] and in data set [6] was < 4.30 in each case. Also, in data set [2], the HC50 was > 100 µM.
As for `C=C(C)[C@@H]1CC[C@]2(CO)CC[C@]3(C)[C@H](CC[C@@H]4[C@@]5(C)CC[C@H](O[C@@H]6O[C@H](CO)[C@@H](O[C@@H]7O[C@@H](C)[C@H](O)[C@@H](O)[C@H]7O)[C@H](O)[C@H]6O[C@@H]6O[C@@H](C)[C@H](O)[C@@H](O)[C@H]6O)C(C)(C)[C@@H]5CC[C@]43C)[C@@H]12`, the negative-log IC50 (pIC50) in data set [1], in data set [3], in data set [4], in data set [5] and in data set [6] was < 4.30 in each case. Further, in data set [2], the HC50 is > 100 µM.
Turning to `C=C(C)[C@@H]1CC[C@]2(CO)CC[C@]3(C)[C@H](CC[C@@H]4[C@@]5(C)CC[C@H](O)C(C)(C)[C@@H]5CC[C@]43C)[C@@H]12` [BETULIN], the HC50 in data set [2] is > 100 µM. This compound also gave a pIC50 in data set [3] of 5.44.
Regarding `C=C(C)[C@@H]1CC[C@]2(C)CC[C@]3(C)[C@H](CC[C@@H]4[C@@]5(C)CC[C@H](O[C@@H]6O[C@H](CO)[C@@H](O[C@@H]7O[C@@H](C)[C@H](O)[C@@H](O)[C@H]7O)[C@H](O)[C@H]6O[C@@H]6O[C@@H](C)[C@H](O)[C@@H](O)[C@H]6O)C(C)(C)[C@@H]5CC[C@]43C)[C@@H]12`, the negative-log IC50 (pIC50) in data set [1], in data set [3], in data set [4], in data set [5] and in data set [6] was < 4.30 in each case. Further, in data set [2], the HC50 came out at 30 µM.
In the case of `C=C(C)[C@@H]1CC[C@]2(C(=O)O)CC[C@]3(C)[C@H](CC[C@@H]4[C@@]5(C)CC[C@H](O[C@@H]6O[C@H](CO)[C@@H](O[C@@H]7O[C@@H](C)[C@H](O)[C@@H](O)[C@H]7O)[C@H](O)[C@H]6O[C@@H]6O[C@@H](C)[C@H](O)[C@@H](O)[C@H]6O)C(C)(C)[C@@H]5CC[C@]43C)[C@@H]12`, the negative-log IC50 (pIC50) in data set [1], in data set [3], in data set [4], in data set [5] and in data set [6] was < 4.30 each time. Moreover, the HC50 in data set [2] was > 100 µM.
On to `CC1(C)CC[C@]23CC[C@]4(C)[C@H](CC[C@@H]5[C@@]6(C)CC[C@H](O)C(C)(C)[C@@H]6CC[C@]54C)[C@H]2[C@H]1OC3=O`, for which the negative logarithm of the IC50 (pIC50) in data set [1], in data set [3], in data set [4], in data set [5] and in data set [6] was < 4.30 throughout. In data set [2], the HC50 is > 100 µM.
`C=C(C)[C@@H]1CC[C@]2(C(=O)O)CC[C@]3(C)[C@H](CC[C@@H]4[C@@]5(C)CC[C@H](O)C(C)(C)[C@@H]5CC[C@]43C)[C@@H]12` [BETULINIC ACID]: the HC50 in data set [2] was > 100 µM. In data set [3], this compound gave a pIC50 of 4.92.
